# Measurements: ChEMBL document CHEMBL4368932 (Bioorg Med Chem, 2019)
# Assays:
# [1] = molecular target: Phosphatidylinositol 4,5-bisphosphate 3-kinase catalytic subunit alpha isoform (Homo sapiens, UniProt P42336); assay: Inhibition of human PI3Kalpha using phosphatidyl inositol as substrate after 3 hrs by Kinase-Glo Plus reagent-based luminescence assay
# [2] = molecular target: T1, Phosphatidylinositol 4,5-bisphosphate 3-kinase catalytic subunit delta isoform (Homo sapiens, UniProt O00329); assay: Inhibition of recombinant human PI3Kdelta using PIP2 as substrate after 35 to 40 mins by HTRF assay
# T1 sequence (O00329 whole entry): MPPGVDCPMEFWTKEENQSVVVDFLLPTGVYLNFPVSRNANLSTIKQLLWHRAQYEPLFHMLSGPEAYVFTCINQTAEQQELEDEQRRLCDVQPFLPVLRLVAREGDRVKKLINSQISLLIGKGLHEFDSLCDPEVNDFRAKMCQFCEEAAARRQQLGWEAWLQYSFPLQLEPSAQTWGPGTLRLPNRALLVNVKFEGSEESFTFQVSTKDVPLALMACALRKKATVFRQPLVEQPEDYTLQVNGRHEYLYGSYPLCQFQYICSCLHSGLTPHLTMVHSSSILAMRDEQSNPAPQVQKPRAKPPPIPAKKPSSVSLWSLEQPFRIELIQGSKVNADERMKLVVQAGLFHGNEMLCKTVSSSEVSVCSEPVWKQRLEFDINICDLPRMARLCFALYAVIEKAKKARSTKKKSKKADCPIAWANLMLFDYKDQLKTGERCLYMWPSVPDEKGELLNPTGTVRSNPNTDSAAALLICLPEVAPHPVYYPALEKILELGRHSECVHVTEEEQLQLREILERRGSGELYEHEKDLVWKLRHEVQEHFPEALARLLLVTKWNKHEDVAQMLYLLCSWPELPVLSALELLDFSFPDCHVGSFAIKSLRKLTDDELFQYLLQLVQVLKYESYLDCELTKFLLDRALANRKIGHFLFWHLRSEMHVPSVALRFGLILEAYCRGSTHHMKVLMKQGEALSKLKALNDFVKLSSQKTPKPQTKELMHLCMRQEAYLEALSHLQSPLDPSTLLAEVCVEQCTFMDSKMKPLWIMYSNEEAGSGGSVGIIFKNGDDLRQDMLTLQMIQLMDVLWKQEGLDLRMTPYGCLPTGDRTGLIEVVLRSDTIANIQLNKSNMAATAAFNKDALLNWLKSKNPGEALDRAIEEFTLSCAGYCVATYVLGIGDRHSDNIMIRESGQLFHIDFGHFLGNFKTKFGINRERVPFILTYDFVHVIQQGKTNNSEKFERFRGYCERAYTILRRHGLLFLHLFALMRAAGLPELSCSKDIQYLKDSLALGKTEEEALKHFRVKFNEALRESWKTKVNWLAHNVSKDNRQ
# B-cell = assay: Antiproliferative activity against anti-IgM antibody-stimulated BALB/c mouse B cells after 2 days by Alamar Blue reagent-based assay; details: 48 h
# [3] = Intrinsic clearance in CD1 mouse liver microsomes at 0.2 uM up to 45 mins in presence of NADPH by LC-MS/MS analysis; type: ADME, Microsome; details: read-out: CLH
# [4] = molecular target: Phosphatidylinositol 4,5-bisphosphate 3-kinase catalytic subunit beta isoform (Homo sapiens, UniProt P42338); assay: Inhibition of recombinant human PI3Kbeta using PIP2 as substrate after 35 to 40 mins by HTRF assay
# [5] = molecular target: Phosphatidylinositol 4,5-bisphosphate 3-kinase catalytic subunit gamma isoform (Homo sapiens, UniProt P48736); assay: Inhibition of recombinant human PI3Kgamma using PIP2 as substrate after 35 to 40 mins by HTRF assay
# [6] = molecular target: T2, Phosphatidylinositol 4,5-bisphosphate 3-kinase catalytic subunit delta isoform (Homo sapiens) (UniProt O00329); assay: Inhibition of recombinant human PI3Kdelta at 0.1 uM using PIP2 as substrate after 35 to 40 mins by HTRF assay relative to control
# T2 sequence (whole entry): T1 sequence (O00329 whole entry)
# Phosphatidylinositol 4,5-bisphosphate 3-kinase catalytic subunit beta isoform, sequence (P42338 whole entry, canonical isoform): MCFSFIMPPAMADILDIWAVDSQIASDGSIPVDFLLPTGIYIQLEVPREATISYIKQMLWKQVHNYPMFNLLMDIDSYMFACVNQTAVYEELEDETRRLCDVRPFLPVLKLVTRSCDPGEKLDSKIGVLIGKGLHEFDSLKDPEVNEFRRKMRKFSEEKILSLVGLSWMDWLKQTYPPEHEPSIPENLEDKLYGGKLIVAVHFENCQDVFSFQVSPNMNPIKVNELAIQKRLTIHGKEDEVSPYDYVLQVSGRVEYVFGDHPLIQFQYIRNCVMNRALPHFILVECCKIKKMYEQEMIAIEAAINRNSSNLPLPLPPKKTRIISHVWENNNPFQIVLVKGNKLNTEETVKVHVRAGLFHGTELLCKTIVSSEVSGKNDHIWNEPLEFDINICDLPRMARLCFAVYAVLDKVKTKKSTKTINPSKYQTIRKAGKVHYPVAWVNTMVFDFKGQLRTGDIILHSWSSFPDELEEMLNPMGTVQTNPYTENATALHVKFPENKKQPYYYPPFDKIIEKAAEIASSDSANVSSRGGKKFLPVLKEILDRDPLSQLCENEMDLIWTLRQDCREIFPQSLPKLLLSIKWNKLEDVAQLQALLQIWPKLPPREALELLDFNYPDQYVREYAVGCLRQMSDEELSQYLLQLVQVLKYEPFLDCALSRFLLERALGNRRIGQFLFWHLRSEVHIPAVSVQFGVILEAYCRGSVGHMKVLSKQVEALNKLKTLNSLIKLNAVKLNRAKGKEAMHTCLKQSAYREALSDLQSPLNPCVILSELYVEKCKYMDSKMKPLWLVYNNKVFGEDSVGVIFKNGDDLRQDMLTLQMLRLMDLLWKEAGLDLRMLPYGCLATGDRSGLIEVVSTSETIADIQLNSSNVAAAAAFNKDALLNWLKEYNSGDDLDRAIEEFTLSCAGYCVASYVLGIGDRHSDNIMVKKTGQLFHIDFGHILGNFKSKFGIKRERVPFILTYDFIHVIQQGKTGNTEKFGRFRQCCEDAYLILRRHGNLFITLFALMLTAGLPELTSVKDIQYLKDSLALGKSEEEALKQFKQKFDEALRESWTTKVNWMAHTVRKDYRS
# Phosphatidylinositol 4,5-bisphosphate 3-kinase catalytic subunit gamma isoform, sequence (P48736 whole entry, canonical isoform): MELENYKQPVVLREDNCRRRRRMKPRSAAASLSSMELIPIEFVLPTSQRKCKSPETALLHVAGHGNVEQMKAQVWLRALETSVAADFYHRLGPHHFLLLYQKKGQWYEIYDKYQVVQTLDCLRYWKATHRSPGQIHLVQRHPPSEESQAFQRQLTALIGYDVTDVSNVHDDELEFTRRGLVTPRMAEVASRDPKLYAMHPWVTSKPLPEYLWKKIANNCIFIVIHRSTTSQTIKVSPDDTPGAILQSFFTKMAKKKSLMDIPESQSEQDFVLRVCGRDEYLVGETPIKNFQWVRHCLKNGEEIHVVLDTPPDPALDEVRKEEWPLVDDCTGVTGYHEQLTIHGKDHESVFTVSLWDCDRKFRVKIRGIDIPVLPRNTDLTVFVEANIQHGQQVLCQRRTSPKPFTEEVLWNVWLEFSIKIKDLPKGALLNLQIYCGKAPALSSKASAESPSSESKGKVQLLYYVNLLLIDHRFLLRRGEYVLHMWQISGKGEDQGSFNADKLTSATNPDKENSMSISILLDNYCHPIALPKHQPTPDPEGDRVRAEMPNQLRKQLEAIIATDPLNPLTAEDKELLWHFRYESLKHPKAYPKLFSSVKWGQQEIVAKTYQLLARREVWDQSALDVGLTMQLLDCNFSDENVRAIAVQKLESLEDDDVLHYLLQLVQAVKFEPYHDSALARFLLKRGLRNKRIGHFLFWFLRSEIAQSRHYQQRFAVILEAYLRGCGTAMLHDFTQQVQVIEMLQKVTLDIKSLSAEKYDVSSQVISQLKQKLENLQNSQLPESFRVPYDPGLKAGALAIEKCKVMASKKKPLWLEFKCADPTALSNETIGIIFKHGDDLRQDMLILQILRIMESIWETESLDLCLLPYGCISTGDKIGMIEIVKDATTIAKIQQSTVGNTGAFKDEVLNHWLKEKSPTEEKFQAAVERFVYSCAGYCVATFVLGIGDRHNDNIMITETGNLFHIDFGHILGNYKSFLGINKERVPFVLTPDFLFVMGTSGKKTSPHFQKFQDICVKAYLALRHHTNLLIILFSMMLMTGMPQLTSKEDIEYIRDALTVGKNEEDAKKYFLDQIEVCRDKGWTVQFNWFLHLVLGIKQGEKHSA
# Phosphatidylinositol 4,5-bisphosphate 3-kinase catalytic subunit alpha isoform, sequence (P42336 whole entry, canonical isoform): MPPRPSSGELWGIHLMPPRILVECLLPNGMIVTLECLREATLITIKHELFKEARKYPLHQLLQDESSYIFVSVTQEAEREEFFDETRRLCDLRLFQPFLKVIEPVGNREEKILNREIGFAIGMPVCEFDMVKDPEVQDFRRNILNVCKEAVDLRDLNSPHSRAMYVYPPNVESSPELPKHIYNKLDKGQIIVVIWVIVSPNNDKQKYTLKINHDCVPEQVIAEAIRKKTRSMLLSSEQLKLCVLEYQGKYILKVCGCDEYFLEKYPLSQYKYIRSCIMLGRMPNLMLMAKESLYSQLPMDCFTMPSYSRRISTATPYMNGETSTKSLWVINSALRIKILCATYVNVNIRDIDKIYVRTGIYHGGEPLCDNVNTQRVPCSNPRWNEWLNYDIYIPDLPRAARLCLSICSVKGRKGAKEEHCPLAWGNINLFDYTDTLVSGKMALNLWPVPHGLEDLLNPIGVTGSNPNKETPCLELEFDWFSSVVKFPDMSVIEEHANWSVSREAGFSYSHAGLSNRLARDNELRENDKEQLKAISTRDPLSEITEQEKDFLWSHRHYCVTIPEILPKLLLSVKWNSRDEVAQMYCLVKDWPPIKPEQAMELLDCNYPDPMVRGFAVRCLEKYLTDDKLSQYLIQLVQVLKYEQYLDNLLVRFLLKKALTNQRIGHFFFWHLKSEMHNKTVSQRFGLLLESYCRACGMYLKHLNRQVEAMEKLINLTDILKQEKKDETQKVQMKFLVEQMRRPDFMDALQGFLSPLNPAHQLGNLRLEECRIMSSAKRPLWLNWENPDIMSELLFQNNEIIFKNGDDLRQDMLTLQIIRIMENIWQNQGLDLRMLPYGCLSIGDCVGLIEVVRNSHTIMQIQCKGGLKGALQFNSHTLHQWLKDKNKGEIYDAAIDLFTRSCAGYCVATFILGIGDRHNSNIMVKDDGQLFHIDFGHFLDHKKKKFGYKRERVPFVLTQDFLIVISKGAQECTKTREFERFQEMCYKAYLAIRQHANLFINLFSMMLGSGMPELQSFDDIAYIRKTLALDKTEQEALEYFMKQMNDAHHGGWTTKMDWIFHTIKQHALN
Structure (SMILES),IC50 [1] [µM],IC50 [2] [nM],CLint scaled at 0.2 µM [3] [mL/min/kg],IC50 [4] [µM],IC50 [5] [µM],inhibition [6] [%],IC50 (B-cell) [nM]
COc1ncc(N2CCc3ncnc(-c4ccnc(OC5CCN(C)CC5)c4)c3C2)cc1C,–,45,–,–,–,–,–
COc1ncc(N2CCc3ncnc(-c4ccnc(NC5CCN(S(C)(=O)=O)CC5)c4)c3C2)cc1C,1.4,9.6,> 1000,–,–,–,12
COCC(=O)N1CCC(Nc2cc(-c3ncnc4c3CN(c3cnc(OC)c(C)c3)CC4)ccn2)CC1,9.8,9.2,580,> 10,> 10,–,7.9
COc1ncc(N2CCc3ncnc(-c4ccnc(NC5CCNCC5)c4)c3C2)cc1C,> 10,25,–,> 10,> 10,–,24
CCN1CCC(Nc2cc(-c3ncnc4c3CN(c3cnc(OC)c(C)c3)CC4)ccn2)CC1,4.6,8.5,160,> 10,> 10,–,4.8

# The next lines start with results.
IC50 [1] [µM],IC50 [2] [nM],CLint scaled at 0.2 µM [3] [mL/min/kg],IC50 [4] [µM],IC50 [5] [µM],inhibition [6] [%],Structure (SMILES),IC50 (B-cell) [nM]
2.6,180,–,–,–,–,COc1ncc(N2CCc3ncnc(-c4cnn(C5CCOCC5)c4)c3C2)cc1C,–
6.1,42,–,–,–,–,COc1ncc(N2CCc3ncnc(-c4ccc(NCC5CCOCC5)nc4)c3C2)cc1C,–
7.3,27,–,–,–,–,COc1ncc(N2CCc3ncnc(-c4ccnc(N[C@H]5CC[C@H](O)CC5)c4)c3C2)cc1C,24
–,39,–,–,–,–,COCCNc1cc(-c2ncnc3c2CN(c2cnc(OC)c(C)c2)CC3)ccn1,–
–,–,–,–,–,14,COc1ncc(N2CCc3ncnc(Nc4ccccc4)c3C2)cc1C,–
